IC50 data for 20 compounds are collected here from patent publication US11472805B2, “Tricyclic compounds and their use as phosphodiesterase inhibitors” (Pfizer Inc., priority 2015, dated 2022).

pIC50: −log10 of the molar value. Structures can show the parent of a compound that is named as a salt. Where two headings read alike, the source gives them in different places.

In one assay the target is human PDE4D3 (Homo sapiens (Human), UniProt Q08499). Kind of assay: PDE4D3 Scintillation Proximity Assay (SPA), inhibition of enzyme activity. It is filed as biochemical. Particulars: read-out: Human PDE4D FL. As for the experimental part:
(§1) The PDE4A, PDE4B, PDE4C and PDE4D binding affinity for the compounds of the present invention was determined utilizing the following biological assay(s):
A portion of the human PDE4D3 coding sequence (amino acids 50 to 672 from the sequence with accession number Q08499-2) was cloned into the baculovirus expression vector pFastBac (Invitrogen) engineered to include a C-terminal His6 affinity tag to aid in purification as described in Seeger, T. F. et al., Brain Research 985 (2003) 113-126. The recombinant Bacmid was isolated and used to transfect insect cells to generate a viral stock. To generate cell paste for purification, insect cells were infected and cells were harvested 72 hours after infection. Insect cell paste was lysed and after centrifugation, the supernatant was chromatographed on Ni-NTA agarose (Qiagen) as described in Seeger, T. F. et al., Brain Research 985 (2003) 113-126. Ni-NTA agarose eluting fractions containing PDE4 were pooled, diluted with Q Buffer A (50 mM Tris HCl pH 8, 4% glycerol, 100 mM NaCl, 1 mM TCEP, Protease inhibitors EDTA-free (Roche)) to reduce NaCl to ˜200 mM, and loaded on a Q Sepharose (GE Healthcare) column. After washing with Q buffer A to baseline, PDE4D was eluted with a gradient from 10% to 60% of Buffer B (50 mM Tris HCl pH 8, 1 M NaCl, 4% glycerol, 1 mM TCEP). PDE4D fractions were analyzed by SDS-PAGE Coomassie blue staining, pooled based on purity, frozen and stored at −80° C.
(§2) The PDE4A3, PDE4B1, PDE4C1 and PDE4D3 assays use the Scintillation Proximity Assay (SPA) technology to measure the inhibition of human recombinant PDE4A1, PDE4B3, PDE4C1, and PDE4D3 enzyme activity by compounds in vitro. The PDE4A1, PDE4B3, PDE4C1, and PDE4D3 assays are run in parallel using identical parameters, except for the concentration of enzyme ([…]). The assays are performed in a 384-well format with 50 uL assay buffer (50 mM TRIS pH7.5; 1.3 mM MgCl2; 0.01% Brij) containing enough PDE4A3, PDE4B1, PDE4C1, and PDE4D to convert ˜20% of substrate (1 μM cAMP consisting of 20 nM 3H-cAMP+[…] cold cAMP) and a range of inhibitors. Reactions are incubated for 30 min at 25° C. The addition of 20 uL of 8 mg/ml yitrium silicate SPA beads (Perkin Elmer) stops the reaction. The plates are sealed (TopSeal, Perkin Elmer) and the beads are allowed to settle for 8 hrs, after which they are read on the Trilux Microbeta overnight.
For orientation: SPA uses beads or plates that emit light when radiolabelled molecules are held near them.

A further assay has as its target Human PDE4B1 (Homo sapiens (Human), UniProt Q07343, S133E/S654A/S659A/S661A). Description: PDE4B1 Scintillation Proximity Assay (SPA), inhibition of enzyme activity. It counts as biochemical. Particulars: read-out: Human PDE4B FL. As for the experimental part:
as §1
The recombinant Bacmid was isolated and used to transfect insect cells to generate a viral stock. To generate cell paste for purification, insect cells were infected with the virus stock and cells were harvested 72 hours after infection as described in Seeger, T. F. et al., Brain Research 985 (2003) 113-126. Insect cell paste was lysed and after centrifugation, the supernatant was chromatographed on Ni-NTA agarose (Qiagen) as described in Seeger, T. F. et al., Brain Research 985 (2003) 113-126. Ni-NTA agarose eluting fractions containing PDE4 were pooled, diluted with Q buffer A (20 mM Tris HCl pH 8, 5% glycerol, 1 mM TCEP) to reduce NaCl to ˜100 mM and loaded on a Source 15Q (GE Healthcare) column. After washing with Q buffer A/10% buffer B to baseline, PDE4D was eluted with a gradient from 10% to 60% of Buffer B (20 mM Tris HCl pH 8, 1 M NaCl, 5% glycerol, 1 mM TCEP). PDE4D fractions were analyzed by SDS-PAGE Coomassie blue staining, pooled based on purity, frozen and stored at −80° C.
as §2

[1] abbreviates: Table 9, geometric mean of 2-9 determinations unless otherwise indicated.
Where [2] appears, read: Table 10, geometric mean of 2-9 determinations unless otherwise indicated.

Sequence of human PDE4D3 (Q08499 186-808): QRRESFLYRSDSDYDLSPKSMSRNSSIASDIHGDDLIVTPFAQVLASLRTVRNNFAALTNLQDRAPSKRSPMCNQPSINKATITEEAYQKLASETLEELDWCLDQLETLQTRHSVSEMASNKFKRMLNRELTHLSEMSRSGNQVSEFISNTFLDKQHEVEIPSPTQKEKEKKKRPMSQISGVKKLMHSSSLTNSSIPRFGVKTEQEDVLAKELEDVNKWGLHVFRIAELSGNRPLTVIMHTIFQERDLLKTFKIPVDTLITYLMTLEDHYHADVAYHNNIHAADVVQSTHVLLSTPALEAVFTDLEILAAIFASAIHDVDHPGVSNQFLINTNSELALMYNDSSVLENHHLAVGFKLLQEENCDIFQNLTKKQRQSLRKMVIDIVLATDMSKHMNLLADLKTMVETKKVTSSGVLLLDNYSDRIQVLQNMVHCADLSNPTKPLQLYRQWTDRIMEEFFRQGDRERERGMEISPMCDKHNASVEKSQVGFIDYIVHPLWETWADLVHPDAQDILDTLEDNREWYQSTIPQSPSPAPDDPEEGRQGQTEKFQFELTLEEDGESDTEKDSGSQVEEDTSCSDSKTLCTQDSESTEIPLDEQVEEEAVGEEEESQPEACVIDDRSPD
Sequence of Human PDE4B1 (Q07343 122-736 S133E/S654A/S659A/S661A): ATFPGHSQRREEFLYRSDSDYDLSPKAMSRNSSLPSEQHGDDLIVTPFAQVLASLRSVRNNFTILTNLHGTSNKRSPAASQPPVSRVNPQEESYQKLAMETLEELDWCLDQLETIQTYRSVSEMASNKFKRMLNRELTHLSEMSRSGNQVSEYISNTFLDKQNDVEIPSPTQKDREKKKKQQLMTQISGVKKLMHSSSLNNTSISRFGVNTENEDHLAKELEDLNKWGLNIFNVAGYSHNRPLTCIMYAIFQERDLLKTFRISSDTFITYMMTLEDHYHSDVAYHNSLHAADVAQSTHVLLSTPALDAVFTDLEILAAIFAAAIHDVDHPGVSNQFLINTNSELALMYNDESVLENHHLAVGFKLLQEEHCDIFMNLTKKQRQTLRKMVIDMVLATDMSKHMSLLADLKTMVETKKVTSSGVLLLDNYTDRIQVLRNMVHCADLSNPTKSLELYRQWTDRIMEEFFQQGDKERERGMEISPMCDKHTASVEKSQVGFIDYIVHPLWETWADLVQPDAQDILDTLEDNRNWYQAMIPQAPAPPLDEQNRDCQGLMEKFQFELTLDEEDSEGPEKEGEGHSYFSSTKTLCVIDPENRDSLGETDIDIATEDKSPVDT

As for `O=C1c2c(-c3ccc(Cl)cc3)c3ncccc3n2C[C@H]2CCCN12` [Example 3, (6aR)-12-(4-Chlorophenyl)-6a, 7,8,9-tetrahydro-6H,11H-pyrido[2′,3′:4,5]pyrrolo[1,2-a]pyrrolo[1,2-d]pyrazin-11-one, trifluoroacetate salt], the pIC50 on human PDE4D3 (setting [1]) was 6.82; at Human PDE4B1 (setting [1]) it was 8.86.
`O=C1c2c(-c3ccc(Cl)cc3)c3ncccc3n2CCN1c1nnc[nH]1` [Example 5, 10-(4-Chlorophenyl)-8-(4H-1,2,4-triazol-3-yl)-7,8-dihydropyrido[2′,3′:4,5]pyrrolo[1,2-a]pyrazin-9(6H)-one]: the pIC50 on human PDE4D3 (setting [1]) was 6.32; at Human PDE4B1 (setting [1]), 8.23.
In the case of `O=c1c2c(-c3ccc(Cl)cc3)c3ncccc3n2ccn1-c1nnc[nH]1` [Example 6, 10-(4-Chlorophenyl)-8-(4H-1,2,4-triazol-3-yl)pyrido[2′,3′:4,5]pyrrolo[1,2-a]pyrazin-9(8H)-one], the pIC50 at human PDE4D3 (setting [1]) is 5.57; at Human PDE4B1 (setting [1]) it was 8.08.
The matching figures for `COc1cc(-c2c3n(c4cccnc24)CCN(C2CC2)C3=O)c(F)cc1Cl` [Example 15, 10-(4-Chloro-2-fluoro-5-methoxyphenyl)-8-cyclopropyl-7,8-dihydropyrido[2′,3′: 4,5]pyrrolo[1,2-a]pyrazin-9(6H)-one]: 6.35 and 8.16.
The matching figures for `CCCN1CCn2c(c(-c3ccc(Cl)cc3)c3ncccc32)C1=O` [Example 17, 10-(4-Chlorophenyl)-8-propyl-7,8-dihydropyrido[2′,3′:4,5]pyrrolo[1,2-a]pyrazin-9(6H)-one]: 7.09 and 9.00.
In the case of `O=C1NCCn2c1c(-c1ccc(Cl)cc1)c1ncccc12` [Example 19, 10-(4-Chlorophenyl)-7,8-dihydropyrido[2′,3′:4,5]pyrrolo[1,2-a]pyrazin-9(6H)-one], the pIC50 at human PDE4D3 (setting [1]) is 5.80; on Human PDE4B1 (setting [1]), 7.73.
With `CN1CCn2c(c(-c3ccc(Cl)cc3)c3ncccc32)C1=O` [Example 30, 10-(4-Chlorophenyl)-8-methyl-7,8-dihydropyrido[2′,3′:4,5]pyrrolo[1,2-a]pyrazin-9(6H)-one], the pIC50 at human PDE4D3 (setting [1]) was 6.10; at Human PDE4B1 (setting [1]), 7.55.
The matching figures for `CCN1CCn2c(c(-c3ccc(Cl)cc3)c3ncccc32)C1=O` [Example 31, 10-(4-Chlorophenyl)-8-ethyl-7,8-dihydropyrido[2′,3′:4,5]pyrrolo[1,2-a]pyrazin-9(6H)-one]: 7.06 and 8.61.
Turning to `O=C1c2c(-c3ccsc3)c3ncccc3n2CCN1C1CC1` [Example 39, 8-Cyclopropyl-10-(thiophen-3-yl)-7,8-dihydropyrido[2′,3′:4,5]pyrrolo[1,2-a]pyrazin-9(6H)-one], the pIC50 on human PDE4D3 (setting [1]) is 5.76; at Human PDE4B1 (setting [1]) it was 7.10.
The matching figures for `N#Cc1ccc(-c2c3n(c4cccnc24)CCN(C2CC2)C3=O)cc1` [Example 43, 4-(8-Cyclopropyl-9-oxo-6,7,8,9-tetrahydropyrido[2′,3′:4,5]pyrrolo[1,2-a]pyrazin-10-yl)benzonitrile]: 5.83 and 7.58.
Turning to `O=C1c2c(-c3ccc(Cl)cc3)c3ncccc3n2C[C@@H]2CCCN12` [Example 52, (6aS)-12-(4-Chlorophenyl)-6a,7,8,9-tetrahydro-6H,11H-pyrido[2′,3′:4,5]pyrrolo[1,2-a]pyrrolo[1,2-d]pyrazin-11-one], the results for the pIC50 at human PDE4D3 (setting [1]) and at Human PDE4B1 (setting [1]) were 5.95 and 7.91, respectively.
For `COc1ccc(-c2c3n(c4cccnc24)CCN(C2CC2)C3=O)cn1` [Example 53, 8-Cyclopropyl-10-(6-methoxypyridin-3-yl)-7,8-dihydropyrido[2′,3′:4,5]pyrrolo[1,2-a]pyrazin-9(6H)-one], in that order: 6.37 and 8.18.
The matching figures for `Cc1cc(Cl)ccc1-c1c2n(c3cccnc13)CCN(C1CC1)C2=O` [Example 56, 10-(4-Chloro-2-methylphenyl)-8-cyclopropyl-7,8-dihydropyrido[2′,3′:4,5]pyrrolo[1,2-a]pyrazin-9(6H)-one]: 6.60 and 8.26.
For the compound `O=C1c2c(-c3ccc(F)cn3)c3ncccc3n2CCN1C1CC1` [Example 62, 8-Cyclopropyl-10-(5-fluoropyridin-2-yl)-7,8-dihydropyrido[2′,3′:4,5]pyrrolo[1,2-a]pyrazin-9(6H)-one], the pIC50 was under 4.52 on human PDE4D3 (setting [1]) and 6.48 at Human PDE4B1 (setting [1]).
For `O=C1c2c(-c3ccc(Cl)cc3)c3ncccc3n2CC2CCN12` (stereo not shown) [Example 67, 11-(4-Chlorophenyl)-6,6a,7,8-tetrahydro-10H-azeto[1,2-a]pyrido[2′,3′:4,5]pyrrolo[1,2-d]pyrazin-10-one], the pIC50 at human PDE4D3 (setting [1]) was 6.06; at Human PDE4B1 (setting [1]), 8.31.
In the case of `CC(=O)N1CCn2c(c(-c3ccc(Cl)cc3)c3ncccc32)C1=O` [Example 78, 8-Acetyl-10-(4-chlorophenyl)-7,8-dihydropyrido[2′,3′:4,5]pyrrolo[1,2-a]pyrazin-9(6H)-one], the pIC50 on human PDE4D3 (setting [2]) is 7.51; on Human PDE4B1 (setting [2]), 7.23.
For `Cc1ccc(-c2c3n(c4nccnc24)CCN(C2CC2)C3=O)cn1` [Example 83, 8-Cyclopropyl-10-(6-methylpyridin-3-yl)-7,8-dihydropyrrolo[1,2-a:4,5-b′]dipyrazin-9(6H)-one], in that order: under 4.53 and 4.81.
The matching figures for `COc1ncc(-c2c3n(c4nccnc24)CCN(C2CC2)C3=O)cn1` [Example 87, 8-Cyclopropyl-10-(2-methoxypyrimidin-5-yl)-7,8-dihydropyrrolo[1,2-a:4,5-b′]dipyrazin-9(6H)-one]: under 4.54 and 5.58.
Take `COc1ncc(-c2c3n(c4cncnc24)CCN(C2CC2)C3=O)cn1` [Example 89, 8-Cyclopropyl-10-(2-methoxypyrimidin-5-yl)-7,8-dihydropyrazino[1′,2′:1,5]pyrrolo[3,2-d]pyrimidin-9(6H)-one]: the pIC50 on human PDE4D3 (setting [2]) was under 4.52; at Human PDE4B1 (setting [2]), 5.53.
For `O=C1c2c(-n3cccn3)c3ncccc3n2CCN1C1CC1` [Example 92, 8-Cyclopropyl-10-(1H-pyrazol-1-yl)-7,8-dihydropyrido[2′,3′:4,5]pyrrolo[1,2-a]pyrazin-9(6H)-one], in that order: under 4.52 and 4.82.
